Values quoted from earlier work in US20070225217A1, “Methods, compositions, and kits for the treatment of medical conditions” (CombinatoRx, Incorporated, priority 2005, published 2007).

CO[C@H]1C[C@@H]2CC[C@@H](C)[C@@](O)(O2)C(=O)C(=O)N2CCCC[C@H]2C(=O)O[C@H]([C@H](C)C[C@@H]2CC[C@@H](O)[C@H](OC)C2)CC(=O)[C@H](C)/C=C(\C)[C@@H](O)[C@@H](OC)C(=O)[C@H](C)C[C@H](C)/C=C/C=C/C=C/1C [Rapamycin]
absorption after oral administration: absorbed rapidly and completely
